In publication PMC2857062 (The Journal of biological chemistry, 2010):

Legend:
[1] = target: Dock1 DHR-1 domain (422-619) (Homo sapiens, UniProt Q14185); test: ITC; format: binding
[2] = target: Dock1 DHR-1 domain (422-619) (Homo sapiens, UniProt Q14185, D436Y); test: ITC; format: binding
Chain of Dock1 DHR-1 domain (422-619) (Homo sapiens, UniProt Q14185, D436Y) (Q14185 422-619 D436Y): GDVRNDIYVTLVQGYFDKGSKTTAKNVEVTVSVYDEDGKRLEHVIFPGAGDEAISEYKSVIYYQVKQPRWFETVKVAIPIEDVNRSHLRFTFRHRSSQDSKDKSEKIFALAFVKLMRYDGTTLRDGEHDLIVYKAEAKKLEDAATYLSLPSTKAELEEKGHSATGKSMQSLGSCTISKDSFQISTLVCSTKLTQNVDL

Chain of Dock1 DHR-1 domain (422-619) (Homo sapiens, UniProt Q14185) (Q14185 422-619): as the sequence (Q14185 422-619 D436Y) above, with Y15D counted along it

Kd [1]	Kd [2]	SMILES
7.7 ± 3 µM		O=P(O)(O)O[C@H]1[C@H](O)[C@@H](OP(=O)(O)O)[C@H](OP(=O)(O)O)[C@@H](OP(=O)(O)O)[C@H]1O [Ins(1,3,4,5)P4]
	3.4 µM	CCCCCCCC(=O)OC[C@H](COP(=O)(O)O[C@H]1[C@H](O)[C@@H](OP(=O)(O)O)[C@H](OP(=O)(O)O)[C@@H](OP(=O)(O)O)[C@H]1O)OC(=O)CCCCCCC [di-C8-PtdIns(3,4,5)P3]
